# Data: ChEMBL document CHEMBL1147627, “Synthesis of cinnamic acids and related isosteres as potent and selective alpha v beta 3 receptor antagonists” (Bioorg Med Chem Lett, 2004)
# What was measured:
# [1] = target: T1, Integrin alpha-V/beta-3 (Homo sapiens, UniProt P05106+P06756); experiment: Binding affinity towards alpha V-beta3 receptor expressed in HEK293 cells; assay type: cell-based
# [2] = target: T1, Integrin alpha-V/beta-3; experiment: Binding affinity towards alpha V/beta3 receptor by solid-phase receptor binding assays (SPRA); assay type: protein-complex assay
# [3] = target: Integrin alpha-IIb/beta-3 (Homo sapiens, UniProt P05106+P08514); experiment: Binding affinity towards alpha IIb/beta3 integrin by solid-phase receptor binding assay (SPRA); assay type: protein-complex assay
# [4] = target: Integrin alpha-V/beta-1 (Homo sapiens, UniProt P05556+P06756); experiment: Binding affinity towards alpha V-beta1 receptor expressed in HEK293 cells; assay type: cell-based
# [5] = target: Integrin alpha-V/beta-5 (Homo sapiens, UniProt P06756+P18084); experiment: Binding affinity towards alpha V-beta5 receptor expressed in HEK293 cells; assay type: cell-based
# Integrin alpha-V/beta-5, sequence (P06756 31-889 limits assumed): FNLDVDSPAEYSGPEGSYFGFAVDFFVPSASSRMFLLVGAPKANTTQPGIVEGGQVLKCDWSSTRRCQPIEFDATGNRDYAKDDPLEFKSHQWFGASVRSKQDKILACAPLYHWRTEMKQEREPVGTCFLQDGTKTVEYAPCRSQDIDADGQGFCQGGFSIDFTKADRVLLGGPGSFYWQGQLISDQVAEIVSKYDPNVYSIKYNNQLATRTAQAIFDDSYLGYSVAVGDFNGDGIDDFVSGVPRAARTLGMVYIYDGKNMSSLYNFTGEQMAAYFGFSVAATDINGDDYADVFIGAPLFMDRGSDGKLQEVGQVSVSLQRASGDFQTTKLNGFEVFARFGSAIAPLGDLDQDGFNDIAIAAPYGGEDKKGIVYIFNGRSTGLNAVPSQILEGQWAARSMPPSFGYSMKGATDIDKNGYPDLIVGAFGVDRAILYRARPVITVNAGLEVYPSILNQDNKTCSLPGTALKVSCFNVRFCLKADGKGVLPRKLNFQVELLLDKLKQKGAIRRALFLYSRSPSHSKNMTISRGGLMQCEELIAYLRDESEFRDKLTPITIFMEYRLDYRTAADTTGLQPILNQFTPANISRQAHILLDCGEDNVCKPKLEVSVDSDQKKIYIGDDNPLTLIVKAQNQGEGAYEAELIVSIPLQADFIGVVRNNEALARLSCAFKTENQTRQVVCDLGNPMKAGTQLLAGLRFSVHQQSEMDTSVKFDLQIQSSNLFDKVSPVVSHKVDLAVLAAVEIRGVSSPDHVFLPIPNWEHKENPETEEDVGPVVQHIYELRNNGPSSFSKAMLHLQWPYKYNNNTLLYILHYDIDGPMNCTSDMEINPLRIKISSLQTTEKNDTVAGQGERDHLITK
# Integrin alpha-V/beta-5, sequence (P06756 891-1048 limits assumed): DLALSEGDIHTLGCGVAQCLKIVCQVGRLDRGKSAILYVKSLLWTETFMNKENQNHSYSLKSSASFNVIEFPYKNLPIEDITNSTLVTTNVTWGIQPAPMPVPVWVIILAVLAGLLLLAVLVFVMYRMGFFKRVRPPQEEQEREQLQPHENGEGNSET
# Integrin alpha-V/beta-5, sequence (P18084 24-799 limits assumed): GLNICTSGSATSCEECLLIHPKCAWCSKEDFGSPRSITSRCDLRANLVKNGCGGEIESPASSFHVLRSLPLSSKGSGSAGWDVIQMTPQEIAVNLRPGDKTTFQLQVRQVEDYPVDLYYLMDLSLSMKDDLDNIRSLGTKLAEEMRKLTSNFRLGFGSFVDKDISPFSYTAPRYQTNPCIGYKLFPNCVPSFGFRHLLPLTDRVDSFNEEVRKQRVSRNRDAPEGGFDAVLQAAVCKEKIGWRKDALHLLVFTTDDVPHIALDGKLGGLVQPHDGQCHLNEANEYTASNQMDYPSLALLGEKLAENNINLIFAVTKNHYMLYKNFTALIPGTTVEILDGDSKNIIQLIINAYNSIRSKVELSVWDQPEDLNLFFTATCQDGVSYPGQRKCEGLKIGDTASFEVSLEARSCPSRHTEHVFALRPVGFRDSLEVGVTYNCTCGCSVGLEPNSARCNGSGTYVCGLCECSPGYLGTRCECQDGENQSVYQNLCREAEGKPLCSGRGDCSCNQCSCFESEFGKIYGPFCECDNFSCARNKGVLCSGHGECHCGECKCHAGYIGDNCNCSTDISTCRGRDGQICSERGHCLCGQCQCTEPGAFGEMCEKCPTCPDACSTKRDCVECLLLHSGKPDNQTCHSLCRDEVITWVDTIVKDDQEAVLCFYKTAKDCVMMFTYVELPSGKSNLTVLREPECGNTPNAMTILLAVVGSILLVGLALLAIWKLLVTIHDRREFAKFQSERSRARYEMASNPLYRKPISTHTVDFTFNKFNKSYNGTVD
# Integrin alpha-IIb/beta-3, sequence (P05106 27-788 limits assumed): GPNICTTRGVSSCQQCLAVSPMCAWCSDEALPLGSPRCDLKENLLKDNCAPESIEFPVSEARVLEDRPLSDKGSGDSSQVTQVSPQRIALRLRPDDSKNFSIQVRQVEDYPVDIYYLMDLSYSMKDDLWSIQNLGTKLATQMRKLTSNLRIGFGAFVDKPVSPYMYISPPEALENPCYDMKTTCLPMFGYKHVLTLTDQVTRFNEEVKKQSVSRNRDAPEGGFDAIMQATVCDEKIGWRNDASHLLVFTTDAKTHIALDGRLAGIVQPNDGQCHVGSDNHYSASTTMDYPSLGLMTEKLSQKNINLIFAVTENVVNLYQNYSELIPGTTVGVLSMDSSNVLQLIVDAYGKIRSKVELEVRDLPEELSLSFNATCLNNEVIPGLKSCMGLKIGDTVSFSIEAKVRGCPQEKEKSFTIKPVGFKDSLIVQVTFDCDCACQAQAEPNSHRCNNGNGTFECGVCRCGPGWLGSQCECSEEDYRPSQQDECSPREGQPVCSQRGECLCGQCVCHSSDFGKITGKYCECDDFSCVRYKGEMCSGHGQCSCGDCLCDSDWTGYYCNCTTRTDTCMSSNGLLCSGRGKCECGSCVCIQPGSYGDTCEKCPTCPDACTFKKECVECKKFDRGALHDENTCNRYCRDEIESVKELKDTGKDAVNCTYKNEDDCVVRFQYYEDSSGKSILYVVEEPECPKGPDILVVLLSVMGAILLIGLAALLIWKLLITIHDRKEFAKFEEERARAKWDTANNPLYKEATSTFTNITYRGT
# Integrin alpha-IIb/beta-3, sequence (P08514 32-887 limits assumed): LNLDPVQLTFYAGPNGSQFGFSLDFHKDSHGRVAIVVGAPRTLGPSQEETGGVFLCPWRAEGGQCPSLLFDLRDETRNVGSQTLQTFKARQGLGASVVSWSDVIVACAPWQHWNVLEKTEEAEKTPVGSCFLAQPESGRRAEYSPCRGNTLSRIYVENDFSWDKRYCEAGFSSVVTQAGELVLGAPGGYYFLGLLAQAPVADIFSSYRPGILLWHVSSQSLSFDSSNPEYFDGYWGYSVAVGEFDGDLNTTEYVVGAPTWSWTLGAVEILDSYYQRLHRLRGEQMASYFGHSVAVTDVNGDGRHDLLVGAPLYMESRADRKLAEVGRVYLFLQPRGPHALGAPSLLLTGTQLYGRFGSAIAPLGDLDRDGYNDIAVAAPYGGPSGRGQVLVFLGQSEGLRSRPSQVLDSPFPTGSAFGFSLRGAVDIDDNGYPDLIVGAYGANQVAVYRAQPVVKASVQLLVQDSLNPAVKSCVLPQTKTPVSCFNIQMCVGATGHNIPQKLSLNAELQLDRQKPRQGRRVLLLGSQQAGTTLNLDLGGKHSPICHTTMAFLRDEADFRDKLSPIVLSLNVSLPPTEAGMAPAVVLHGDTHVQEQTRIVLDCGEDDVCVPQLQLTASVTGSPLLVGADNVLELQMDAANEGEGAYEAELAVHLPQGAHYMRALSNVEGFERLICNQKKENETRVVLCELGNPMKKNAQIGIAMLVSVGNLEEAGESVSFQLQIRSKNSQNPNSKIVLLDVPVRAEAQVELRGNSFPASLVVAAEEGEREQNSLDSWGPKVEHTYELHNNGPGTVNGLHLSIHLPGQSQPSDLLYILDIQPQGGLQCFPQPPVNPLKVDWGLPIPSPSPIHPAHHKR
# Integrin alpha-IIb/beta-3, sequence (P08514 891-1039 limits assumed): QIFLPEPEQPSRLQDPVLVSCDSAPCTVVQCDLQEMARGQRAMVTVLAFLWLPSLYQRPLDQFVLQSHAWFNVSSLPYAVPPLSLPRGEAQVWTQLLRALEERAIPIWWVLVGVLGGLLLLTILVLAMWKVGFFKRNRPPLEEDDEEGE
# T1 sequence (P05106 27-788 limits assumed): as the sequence (P05106 27-788 limits assumed) above
# T1 sequence (P06756 31-889 limits assumed): as the sequence (P06756 31-889 limits assumed) above
# T1 sequence (P06756 891-1048 limits assumed): as the sequence (P06756 891-1048 limits assumed) above
# Integrin alpha-V/beta-1, sequence (P05556 21-798 limits assumed): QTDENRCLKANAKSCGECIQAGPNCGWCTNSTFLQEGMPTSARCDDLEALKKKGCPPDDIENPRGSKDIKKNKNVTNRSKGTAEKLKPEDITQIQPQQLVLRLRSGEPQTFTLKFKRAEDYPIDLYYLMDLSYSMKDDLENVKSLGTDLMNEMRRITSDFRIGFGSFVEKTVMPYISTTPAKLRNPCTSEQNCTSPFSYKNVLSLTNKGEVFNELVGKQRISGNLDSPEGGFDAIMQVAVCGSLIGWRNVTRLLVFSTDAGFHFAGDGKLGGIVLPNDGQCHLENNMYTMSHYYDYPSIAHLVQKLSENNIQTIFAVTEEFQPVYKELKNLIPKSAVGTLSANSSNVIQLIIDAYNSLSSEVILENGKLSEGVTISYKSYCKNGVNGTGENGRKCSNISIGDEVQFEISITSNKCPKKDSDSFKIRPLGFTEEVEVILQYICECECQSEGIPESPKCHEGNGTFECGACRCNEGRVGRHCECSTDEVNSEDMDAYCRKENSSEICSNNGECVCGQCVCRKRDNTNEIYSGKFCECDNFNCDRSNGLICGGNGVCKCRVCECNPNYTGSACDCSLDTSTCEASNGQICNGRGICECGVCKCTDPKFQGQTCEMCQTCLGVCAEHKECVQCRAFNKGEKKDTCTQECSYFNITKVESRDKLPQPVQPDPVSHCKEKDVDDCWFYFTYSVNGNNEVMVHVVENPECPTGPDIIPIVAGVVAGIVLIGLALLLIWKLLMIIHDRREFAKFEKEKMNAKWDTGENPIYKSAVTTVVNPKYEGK
# Integrin alpha-V/beta-1, sequence (P06756 31-889 limits assumed): as the sequence (P06756 31-889 limits assumed) above
# Integrin alpha-V/beta-1, sequence (P06756 891-1048 limits assumed): as the sequence (P06756 891-1048 limits assumed) above
SMILES,IC50 [1] [nM],IC50 [2] [nM],IC50 [3] [nM],IC50 [4] [nM],IC50 [5] [nM]
O=C(O)/C=C/c1ccc(NC(=O)c2cccc(NC3=NCCCN3)c2)cc1,1.8,2,528,219,7.6
COc1cc(NC(=O)c2cccc(NC3=NCCCN3)c2)ccc1/C=C/C(=O)O,–,2.2,661,–,–
Cc1cc(/C=C/C(=O)O)cc(C)c1NC(=O)c1cccc(NC(=N)N)c1,21,–,–,2070,116
COc1cc(NC(=O)c2cccc(N=C(N)N)c2)ccc1OCC(=O)O,4.3,3.2,–,222,102
N=C(N)Nc1cccc(C(=O)Nc2ccc(/C=C/C(=O)O)cc2F)c1,9.6,–,–,426,45
COc1cc(NC(=O)c2cccc(NC3=NCCCN3)c2)ccc1CCC(=O)O,5.6,5.8,–,162,16.6
N=C(N)Nc1cccc(C(=O)Nc2ccc(/C=C/C(=O)O)cc2)c1,13.1,–,–,109,39
N=C(N)Nc1cccc(C(=O)Nc2ccc(/C=C/C(=O)O)c(Cl)c2)c1,–,23,45,–,–
N=C(N)Nc1cccc(C(=O)Nc2cc(Cl)c(/C=C/C(=O)O)c(Cl)c2)c1,–,–,25000,–,–
CCc1cc(/C=C/C(=O)O)ccc1NC(=O)c1cccc(NC(=N)N)c1,–,3,–,–,–
COc1cc(NC(=O)c2cccc(NC3=NCCCN3)c2)ccc1CC(NC(=O)OC(C)C)C(=O)O (stereo not drawn),0.35,0.16,1000,0.68,0.41
N=C(N)Nc1cccc(C(=O)Nc2ccc(CC(NS(=O)(=O)c3ccccc3)C(=O)O)cc2)c1 (stereo not drawn),0.2,–,–,18.3,8.1
CC(C)OC(=O)NC(Cc1ccc(NC(=O)c2cccc(N=C(N)N)c2)cc1)C(=O)O (stereo not drawn),2.6,–,22,0.47,0.76
CC(C)(C)OC(=O)NC(Cc1ccc(NC(=O)c2cccc(N=C(N)N)c2)cc1)C(=O)O (stereo not drawn),2.5,–,–,6.7,1
O=C(O)/C=C/c1ccc(NC(=O)c2cccc(NC3=NCCCN3)c2)c(Cl)c1,1.7,–,–,85,13
NC(N)=Nc1cccc(C(=O)Nc2ccc(CCC(=O)O)cc2)c1,10.9,–,–,758,135
COc1cc(NC(=O)c2cccc(NC(=N)N)c2)ccc1CC(NC(=O)OC(C)C)C(=O)O (stereo not drawn),0.32,1.1,–,1.1,0.38
N=C(N)Nc1cccc(C(=O)Nc2ccc(/C=C/C(=O)O)cc2Cl)c1,5.9,–,–,426,60

SMILES,IC50 [1] [nM],IC50 [2] [nM],IC50 [3] [nM],IC50 [4] [nM],IC50 [5] [nM]
COc1cc(NC(=O)c2cccc(NC3=NCCCN3)c2)ccc1OCC(=O)O,1.7,0.43,–,82,29
N=C(N)Nc1cccc(C(=O)Nc2ccc(/C=C/C(=O)O)c(C(=O)O)c2)c1,–,1.2,–,–,–
CS(=O)(=O)NC(Cc1ccc(NC(=O)c2cccc(N=C(N)N)c2)cc1)C(=O)O (stereo not drawn),0.98,–,–,29,3.1
N=C(N)Nc1cccc(C(=O)Nc2ccc(OCC(=O)O)cc2)c1,11.9,–,–,351,144
CC(C)OC(=O)NC(Cc1ccc(NC(=O)c2cccc(NC3=NC(=O)CN3)c2)cc1)C(=O)O (stereo not drawn),0.94,–,–,17.7,0.89
O=C(Nc1ccc(CC(NS(=O)(=O)c2ccccc2)C(=O)O)cc1)c1cccc(NC2=NCCCN2)c1 (stereo not drawn),0.12,0.11,6,10.4,0.96
O=C(O)CCc1ccc(NC(=O)c2cccc(NC3=NCCCN3)c2)cc1C(=O)O,–,6.1,–,–,–
O=C(Nc1ccc(CC(NS(=O)(=O)c2ccccc2)C(=O)O)cc1)c1cccc(NC2=NCCN2)c1 (stereo not drawn),–,0.27,12.5,–,–
O=C(O)/C=C/c1ccc(NC(=O)c2cccc(NC3=NCCCN3)c2)cc1Cl,3.8,3.9,641,507,26
CC(=O)NC(Cc1ccc(NC(=O)c2cccc(N=C(N)N)c2)cc1)C(=O)O (stereo not drawn),2.6,–,–,16,40
N=C(N)Nc1cccc(C(=O)Nc2ccc(C3CC3C(=O)O)cc2)c1 (stereo not drawn),65,31,–,339,149
Cc1cc(/C=C/C(=O)O)cc(C)c1NC(=O)c1cccc(NC2=NCCN2)c1,3,–,–,264,29
O=C(Nc1ccc(C2CC2C(=O)O)cc1)c1cccc(NC2=NCCCN2)c1 (stereo not drawn),40,–,–,320,69
Cc1cc(NC(=O)c2cccc(NC(=N)N)c2)ccc1/C=C/C(=O)O,19.4,–,–,505,49
CC(C)(C)NC(=O)NC(Cc1ccc(NC(=O)c2cccc(N=C(N)N)c2)cc1)C(=O)O (stereo not drawn),2.9,3.2,–,4.8,3
COc1cc(/C=C/C(=O)O)ccc1NC(=O)c1cccc(NC(=N)N)c1,–,10.3,38,–,–
Cc1cc(/C=C/C(=O)O)ccc1NC(=O)c1cccc(NC2=NCCCN2)c1,1.7,–,–,60,9.6
